From patent US9744186B2 (priority 2012, dated 2017)

Tests used:
Huh7 cells = test: in vitro; conditions: control Huh7 cells; 48 h drug exposure; MTS
Procedure: Plating Cells: The Huh7 cell line was passaged when it was at about 70% confluency. The cells were counted using a hemocytometer, followed by dilution of the cells to 0.5×10^5 cells per mL in DMEM+10% FBS. The cells were plated at 100 μL (5,000 cells) per well in a clear 96-well plate. The cells were allowed to attach for 24 hours at 37° C.
Treating the cells: The media (DMEM media without phenol red+2% FBS media) was pre-warmed to 37° C. […] This provided a final DMSO concentration of 0.5%. The 100 mM stock of 3,5-dichlorobenzoic acid was diluted in DMEM without phenol red+2% FBS to a concentration of 0.5 mM. The working 0.5 mM diluted test drugs were serially diluted in DMEM without phenol red+2% FBS+0.5% DMSO in order to maintain a constant concentration of DMSO in each condition. The 96-well plate was removed from the 37° C. incubator, and the media on the plate was replaced with media containing diluted test drug.
MTS Assay: The reagents from CellTiter 96 kit (Promega Corporation, Madison, Wis.) were thawed at room temperature in the dark for 1 h. The 96-well plate was removed from the 37° C. incubator at 48 h after drug treatment. 20 μL of the combined MTS/PMS reagent to each well of the plate, mixed, and the plate returned to 37° C. The absorbance of each well at 490 nm and 650 nm was determined using the Flexstation 3 microplate reader in endpoint mode every hour for 3 h. The solutions in the wells were mixed prior to each reading. The data were fit to the Emax model: y=(Emax*x)/(TC50+x), where Emax is the maximum inhibition and TC50 is the inhibitory dose 50%. Alternatively, the data can be fit to the Emax sigmoidal model: y=(Emax*x^slope)/(TC50^slope+x^slope), where slope is the Hill Slope.

[1] = TC50 MTS assay: PK9 cells; type: cell-based; conditions: human, 48 h drug treatment
Procedure: Plating Cells: The Huh7, HEPG2, HEK293, MCF-7, PK9, RPK9, or BxPC3 cells were passaged when they were about 70% confluent. The cells were counted using a hemocytometer, and then diluted cells to 0.5×10^5 cells per mL in DMEM+10% FBS. 100 µL of the cells (5,000 cells) were plated per well in a clear 96-well plate. The cells were allowed to attach for 24 hours at 37° C.
Treating the cells: Pre-warm the DMEM media without phenol red+2% FBS media to 37° C. […] This will bring the final DMSO concentration to 0.5%. Use these 0.5 mM dilutions to further serially the drugs in DMEM without phenol red+2% FBS+0.5% DMSO. This will keep the concentration of DMSO in each condition identical. Remove the 96-well plate from the 37° C. incubator. Replace the media on the plate with the dilutions of the drugs. Stagger these treatments by 1 h and write the treatment time on each set of plates. Return to 37° C. for 48 h or 96 h as indicated.
MTS Assay: The reagents from CellTiter 96 kit (Promega Corporation, Madison, Wis.) were thawed at room temperature in the dark for 1 h. The 96-well plate was removed from the 37° C. incubator at 48 h after drug treatment. […] The absorbance of each well at 490 nm and 650 nm was determined using the Flexstation 3 microplate reader in endpoint mode every hour for 3 h. The solutions in the wells were mixed prior to each reading. […]

Compound	TC50 (Huh7 cells) [nM]	CC50 at 48 h [1] [µM]
O=C(Nc1ccn([C@@H]2O[C@H](CO)[C@@H](O)C2(F)F)c(=O)n1)c1cc(Cl)cc(Cl)c1 [GCB, N^4-(3,5-Dichlorobenzoyl)gemcitabine]	> 100000	–
COc1cc(C(=O)Nc2ccn([C@@H]3O[C@H](CO)[C@@H](O)C3(F)F)c(=O)n2)cc(OC)c1OC [GTB, N^4-(3,4,5-Trimethoxybenzoyl)gemcitabine]	–	1.69 ± 0.1
